The results in this text go back to patent publication US20260337125A1, “RADIOLABELED TYROSINE DERIVATIVE AND APPLICATION THEREOF” (Osaka University, priority 2022, published 2026).

Series [1] concerns human pancreatic cancer cell line (PANC1). Nature of the series: Therapeutic test on PANC1 subcutaneously transplanted mice (28 days). The series is classed as in vivo, human (PANC1) in Balb/c-nu/nu mice. The settings on record: 1 MBq/0.2 mL per mouse, tail vein. The text has this:
Twenty-eight days after administration, the mice were euthanized and subjected to autopsy, and tumor masses were isolated after organs were examined for abnormalities.

Series [2] deals with CDDP-resistant A549 (A549 CDDP-r). The note with it: 48 hours, 37 °C, Cell counting kit-8. The method, then:
Two days before experiment, A549 and CDDP-resistant A549 (A549 CDDP-r) were each seeded in a 96-well plate at a concentration of 1×10^5 cells/mL. ^211At-AAMT-OMe or ^211At-AAMT adjusted to a predetermined concentration was added to A549 cells and CDDP-resistant A549 cells, respectively, and the cells were cultured (CO2 5%, 37 °C). After the cultivation for 48 hours, Cell counting kit-8 (DOJINDO LABORATORIES) was added. After the addition, the cells were cultured at 37 °C for 1 hour, and cell viability was measured using absorbance at 450 nm as an indicator.

Series [3] in a line: Measurement of accumulated amounts of 211At-labeled compounds in PANC1 tumor-bearing mice. The settings on record: tumor, iv, 0.1 MBq/animal, 0.1 MBq/0.2 mL per mouse, tail vein, read-out: tumor accumulation. The series is classed as in vivo, human (PANC1) in Balb/c-nu/nu mice. The method, then:
(§1) Radiation doses before and after the administration were measured, and a difference between them was defined as an injected dose (ID). Ten minutes and one hour after administration, the mice were anesthetized by isoflurane inhalation, the tumors were isolated by autopsy in chronological order, and their radiation doses and weights were measured using a gamma counter (2480 Wizard^2, PerkinElmer) and a semimicro scale (Shimadzu Corporation, readability 10 μg), respectively. For comparison between accumulated amounts, accumulated amounts per unit amount (% ID/g) were calculated.
(§2) In Table 1, the amounts of the ^211At-labeled compounds accumulated in tumors of the PANC1 tumor-bearing models (% ID/g) are shown. It should be noted that in Table 1, “OMe” is ^211At-AAMT-OMe, “OEt” is ^211At-AAMT-OEt, “OPr” is ^211At-AAMT-OPr, and “OH” is ^211At-AAMT.

For series [4], the system named is PANC1 tumor. The description is as above. The series is classed as in vivo, human (PANC1) in Balb/c-nu/nu mice. Here is the method: as §1, §2
In series [5] the test system is PANC1. The series can be described thus: Cellular uptake test (Using PANC1). Type of series: cell-based, human. Here is the method: • Cells to be used: PANC1 • Culture medium to be used: D-MEM (containing 10% FBS, 1% P/S)
Two days before a test day, a cell suspension was prepared in such a manner that the concentration of predetermined cells was 1×10^5 cells/mL in the same manner as in Test Example 1. The cell suspension was seeded in a 24-well multiculture plate at a volume of 0.5 mL per well. On the day of the test, cultures were confirmed to be subconfluent (which refers to a state where 70-80% of the well is covered in density). The cells were washed twice with warmed PBS(-) Buffer (166-23555, FUJIFILM Wako Pure Chemical Corporation), the culture medium was replaced with HBSS(-) Buffer (085-09355, FUJIFILM Wako Pure Chemical Corporation), and the plate was left to stand in an incubator (MINIcell-35, WakenBtech Co., Ltd) until an RI addition test.
^211At-AAMT-OMe, ^211At-AAMT-OEt, ^211At-AAMT-OPr, or ^211At-AAMT was added to the prepared cells at 10 μL/well. BCH (LAT1 inhibitor, 20 mM) or unlabeled AMT (α-methyl tyrosine, 1 μg/mL) was previously (15 minutes before) added ([…]). The cells were cultured (CO2 5%, 37 °C), and after 30 minutes, the liquid was removed by suction using an aspirator. The cells were washed twice with PBS(-). The cells were lysed by adding 0.1N NaOH to obtain a lysate, and the radioactivity of the lysate was measured using a γ counter. After the radioactivity measurement, the lysate was loaded into a 96-well plate at a volume of 10 μL per well, the protein amount was measured by the BCA method, and the number of cells was corrected based on the protein amount. Absorbance was measured by MultiScanFC (Thermo Fisher). The uptake level of ^211At-AAMT-OMe, ^211At-AAMT-OEt, ^211-At-AAMT-OPr, or ^211At-AAMT into the cells (number of radioactivity counts/protein amount) was calculated.

For series [6], the system named is CDDP-resistant A549 (A549 CDDP-r). The settings on record: A549 CDDP-r tumor weight 30 days after administration, 0.5 MBq/0.2 mL per mouse, tail vein. The method, then:
(§3) Thirty days after administration, the mice were euthanized and tumor masses were isolated. After fat tissue and the like were trimmed off, the wet weights of the isolated tumor masses were measured to make a histogram.

The subject of series [7] is Gem-resistant PANC1 (PANC1 Gem-r). The note with it: in vivo. Here is the method:
as §3

Regarding `COc1ccc(C[C@](C)(N)C(=O)O)cc1[At]` [^211At-AAMT-OMe, (S)-3-astato(^211At)-O-methyl-α-methyltyrosine], in series [1] (28 days after administration), the anti-tumor effect result is “slightly higher than that of ^211At-AAMT” and the tumor size result is listed as “slightly smaller than that of the ^211At-AAMT administration group”. For the same compound, the mouse body weight entry in series [1] (up to 28 days after administration) is “tends to slightly reduce, but the body weight reduction is significantly smaller than that of the control group, and is therefore not at a level regarded as a side effect”. Further, in series [2], the cytotoxicity entry is “more remarkable cytotoxicity against A549 CDDP-r”. Further, in series [3] (10 minutes after administration), the tissue uptake at 10 min came to 2.59 %ID/g. The tissue uptake at 1 h in series [3] (1 hour after administration) was 3.78 %ID/g. For the same compound, the “accumulation in the tumor sites compared to 211At-AAMT” value in series [4] (10 minutes and 1 hour after administration, tail vein) was “more highly accumulated in the tumor sites than ^211At-AAMT”. Moreover, the “retention at tumor sites” value in series [4] (compared to 211At-AAMT) is “superior retention at tumor sites compared to ^211At-AAMT”. Also, in series [5], the “uptake level into cells (number of radioactivity counts/protein amount)” value was “much superior in uptake level to ^211At-AAMT”. In addition, the uptake speed result in series [5] (PANC1 cells, uptake level immediately after addition) is recorded as “much superior also in uptake speed”. Moreover, the anti-tumor effect result in series [6] is on record as “higher than that of ^211At-AAMT on CDDP-resistant A549”. In series [7], the anti-tumor effect entry is “higher on Gem-resistant PANC1 (PANC1 Gem-r) than on PANC1” and the “tumor growth inhibiting effect” value is reported as “higher tumor growth inhibiting effect on the gemcitabine-resistant PANC1 cells”.
